Drawing on US10899755B2, “Benzothiazole compounds and uses thereof” (Incyte Corporation, priority 2018, dated 2021), this text covers Ki for eleven compounds.

SMILES strings stand for the structures. A value given as a limit tells only on which side of the number the result lay.

The test deals with HPK1 (Homo sapiens, UniProt Q92918). In words: HPK1 Kinase Binding Assay. Conditions: active HPK1 (SignalChem M23-11G), tracer 222, LanthaScreen Eu-Anti GST antibody, one hour incubation at 25° C. (In TR-FRET formats the signal depends on donor and acceptor labels being close together.)
HPK1, sequence (Q92918 whole entry, looked up): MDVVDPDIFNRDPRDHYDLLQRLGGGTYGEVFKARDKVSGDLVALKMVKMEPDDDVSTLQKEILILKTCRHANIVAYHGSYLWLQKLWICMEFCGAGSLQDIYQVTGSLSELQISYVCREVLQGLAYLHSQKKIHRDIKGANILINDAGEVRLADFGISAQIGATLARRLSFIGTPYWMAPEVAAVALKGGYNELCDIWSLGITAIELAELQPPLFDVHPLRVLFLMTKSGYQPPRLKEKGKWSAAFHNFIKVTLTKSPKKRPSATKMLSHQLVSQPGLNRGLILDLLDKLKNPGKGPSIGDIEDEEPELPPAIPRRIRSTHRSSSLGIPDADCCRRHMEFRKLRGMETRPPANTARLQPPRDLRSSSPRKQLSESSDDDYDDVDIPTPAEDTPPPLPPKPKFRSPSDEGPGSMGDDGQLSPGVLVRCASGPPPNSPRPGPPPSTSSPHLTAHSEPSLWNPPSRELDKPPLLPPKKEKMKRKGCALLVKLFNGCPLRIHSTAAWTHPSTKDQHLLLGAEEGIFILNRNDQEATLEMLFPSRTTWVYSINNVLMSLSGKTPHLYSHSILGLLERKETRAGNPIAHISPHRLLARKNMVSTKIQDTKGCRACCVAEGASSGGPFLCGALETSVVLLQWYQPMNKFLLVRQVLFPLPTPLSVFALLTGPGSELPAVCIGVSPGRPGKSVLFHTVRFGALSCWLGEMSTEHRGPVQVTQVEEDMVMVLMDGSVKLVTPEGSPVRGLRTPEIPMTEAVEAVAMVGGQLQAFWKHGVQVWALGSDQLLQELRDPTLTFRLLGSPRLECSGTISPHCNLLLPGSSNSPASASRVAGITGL
Experimental: A stock solution of 1 mM test compound was prepared in DMSO. The compound plate was prepared by 3-fold and 11-point serial dilutions. 0.1 μL of the compound in DMSO was transferred from the compound plate to the white 384 well polystyrene plates. The assay buffer contained 50 mM HEPES, pH 7.5, 0.01% Tween-20, 5 mM MgCl2, 0.01% BSA, and 5 mM DTT. 5 μL of 4 nM active HPK1 (SignalChem M23-11G) prepared in the buffer was added to the plate. The enzyme concentration given was based on the given stock concentration reported by the vender. […] After one hour incubation at 25° C., the plates were read on a PHERAstar FS plate reader (BMG Labtech). Ki values were determined.
Regarding `COc1cccc(F)c1-c1nccc(C(=O)Nc2ccc3sc(C)nc3c2N2CCOC[C@@H]2CN)n1` [Example 26, (S)—N-(4-(3-(aminomethyl)morpholino)-2-methylbenzo[d]thiazol-5-yl)-2-(2-fluoro-6-methoxyphenyl)pyrimidine-4-carboxamide], the Ki (in general, a dissociation constant, usually derived from enzyme kinetics or from competition with a known ligand) was below 100 nM. For `Cc1nc2c(N3C[C@@H]4CC[C@H]3CN4)c(NC(=O)c3ccnc(-c4c(F)cccc4F)n3)ccc2s1` [Example 31, N-(4-((1S,4S)-2,5-Diazabicyclo[2.2.2]octan-2-yl)-2-methylbenzo[d]thiazol-5-yl)-2-(2,6-difluorophenyl)pyrimidine-4-carboxamide] the value was below 100 nM; for `COc1ccc(-c2cnn(C)c2)c(F)c1-c1nccc(C(=O)Nc2ccc3sc(C)nc3c2N2C[C@H](N)C[C@H]2CO)n1` [Example 15, N-(4-((2S,4R)-4-Amino-2-(hydroxymethyl)pyrrolidin-1-yl)-2-methylbenzo[d]thiazol-5-yl)-2-(2-fluoro-6-methoxy-3-(1-methyl-1H-pyrazol-4-yl)phenyl)pyrimidine-4-carboxamide], below 100 nM; for `COc1cccc(F)c1-c1nccc(C(=O)Nc2ccc3sc(C)nc3c2N2C[C@@H](N)C[C@H]2CO)n1` [Example 23, N-(4-((2S,4S)-4-amino-2-(hydroxymethyl)pyrrolidin-1-yl)-2-methylbenzo[d]thiazol-5-yl)-2-(2-fluoro-6-methoxyphenyl)pyrimidine-4-carboxamide], below 100 nM. Then `COc1cccc(F)c1-c1nccc(C(=O)Nc2ccc3sc(C)nc3c2N2C[C@H](NC3CCOCC3)C[C@H]2CO)n1` [Example 19, 2-(2-Fluoro-6-methoxyphenyl)-N-(4((2S,4R)-2-(hydroxymethyl)-4-(tetrahydro-2H-pyran-4-ylamino)pyrrolidin-1-yl)-2-methylbenzo[d]thiazol-5-yl)pyrimidine-4-carboxamide], with below 100 nM; and `Cc1nc2c(N3CC[C@@H](N)C3)c(NC(=O)c3ccnc(-c4c(C)cccc4F)n3)ccc2s1` [Example 2, (R)—N-(4-(3-Aminopyrrolidin-1-yl)-2-methylbenzo[d]thiazol-5-yl)-2-(2-fluoro-6-methylphenyl)pyrimidine-4-carboxamide], with below 100 nM. On to `COc1cccc(C(N)=O)c1-c1nccc(C(=O)Nc2ccc3sc(C)nc3c2N2C[C@H](N)C[C@H]2CO)n1` [Example 14, N-(4-((2S,4R)-4-Amino-2-(hydroxymethyl)pyrrolidin-1-yl)-2-methylbenzo[d]thiazol-5-yl)-2-(2-carbamoyl-6-methoxyphenyl)pyrimidine-4-carboxamide], for which the Ki was 100 to 500 nM.

On to `COc1cccc(F)c1-c1nccc(C(=O)Nc2ccc3sc(C(C)C)nc3c2N2C[C@@H](N)C[C@H]2CO)n1` [Example 13, N-(4-((2S,4S)-4-Amino-2-(hydroxymethyl)pyrrolidin-1-yl)-2-isopropylbenzo[d]thiazol-5-yl)-2-(2-fluoro-6-methoxyphenyl)pyrimidine-4-carboxamide], for which the Ki is below 100 nM. Take `COc1cccc(F)c1-c1nccc(C(=O)Nc2ccc3sc(CN(C)C)nc3c2N2C[C@H](N)C[C@H]2CO)n1` [Example 32, N-(4-((2S,4R)-4-amino-2-(hydroxymethyl)pyrrolidin-1-yl)-2-((dimethylamino)methyl)benzo[d]thiazol-5-yl)-2-(2-fluoro-6-methoxyphenyl)pyrimidine-4-carboxamide]: the Ki is below 100 nM. Then `COc1cccc(F)c1-c1nccc(C(=O)Nc2ccc3sc(C)nc3c2N(C)[C@@H]2CCCNC2)n1` [Example 27], with below 100 nM. For `COc1cccc(F)c1-c1nccc(C(=O)Nc2cc(C)c3sc(C)nc3c2N2CC[C@H](N)C2)n1` [Example 7, (S)—N-(4-(3-Aminopyrrolidin-1-yl)-2,7-dimethylbenzo[d]thiazol-5-yl)-2-(2-fluoro-6-methoxyphenyl)pyrimidine-4-carboxamide] the value was below 100 nM.
